Paper PMC7606262 (Molecular genetics and metabolism, 2020)
Changes are numbered by the printed parent chain.

Columns and labels:
[1] = molecular target: T1, LCAD (long-chain acyl-CoA dehydrogenase) (Homo sapiens, UniProt P28330); experiment: absorbance scan, A443/A280 FAD content; format: binding; settings: 100 uM free FAD, 37 °C, 20 min, then dialysis; non-covalent FAD
T1 sequence (P28330 31-430): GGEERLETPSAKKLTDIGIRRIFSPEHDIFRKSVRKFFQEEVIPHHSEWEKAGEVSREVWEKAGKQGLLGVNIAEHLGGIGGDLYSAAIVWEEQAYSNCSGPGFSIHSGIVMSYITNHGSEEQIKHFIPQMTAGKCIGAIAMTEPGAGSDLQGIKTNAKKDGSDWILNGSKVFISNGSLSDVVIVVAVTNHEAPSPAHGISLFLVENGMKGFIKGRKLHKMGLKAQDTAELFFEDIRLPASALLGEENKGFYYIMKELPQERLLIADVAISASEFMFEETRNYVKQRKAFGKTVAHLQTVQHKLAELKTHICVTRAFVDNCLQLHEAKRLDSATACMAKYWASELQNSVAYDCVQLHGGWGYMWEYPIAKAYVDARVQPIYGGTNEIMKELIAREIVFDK

[2] = molecular target: T1, LCAD (long-chain acyl-CoA dehydrogenase); experiment: acyl-CoA oxidase assay; format: biochemical; settings: oxygen as electron acceptor; 50 mM phosphate pH 7.0, 30 °C
[3] = molecular target: T2, LCAD (long-chain acyl-CoA dehydrogenase) (Homo sapiens, UniProt P28330, K333Q); experiment: acyl-CoA oxidase assay; format: biochemical; settings: oxygen as electron acceptor; 50 mM phosphate pH 7.0, 30 °C
T2 sequence (P28330 31-430 K333Q): T1 sequence (P28330 31-430) with K303Q

## Cc1cc2nc3c(=O)[nH]c(=O)nc-3n(C[C@H](O)[C@H](O)[C@H](O)COP(=O)(O)OP(=O)(O)OC[C@H]3O[C@@H](n4cnc5c(N)ncnc54)[C@H](O)[C@@H]3O)c2cc1C [FAD]
[1]
  A443/A280: After incubation of wild-type LCAD with FAD, the A443/A280 ratio, an indicator of enzyme-bound FAD

## CCCCCCCCCCCCCCCCCC(=O)SCCNC(=O)CCNC(=O)[C@H](O)C(C)(C)COP(=O)(O)OP(=O)(O)OC[C@H]1O[C@@H](n2cnc3c(N)ncnc32)[C@H](O)[C@@H]1OP(=O)(O)O [C18-CoA, stearoyl-CoA]
[2]
  acyl-CoA oxidase assay (HRP / Amplex UltraRed fluorescence, H2O2): C18-CoA was used as substrate as this chain length produces the highest H2O2 production
[3]
  acyl-CoA oxidase assay (HRP / Amplex UltraRed fluorescence, H2O2): the presence of the K333Q substitution significantly reduced oxidase activity
